GI50 and TGI data for 11 compounds are collected here from PubChem BioAssay (NCI).

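Exposure lasted 48 hours, with cells grown in 96-well plates and compounds tested at five concentrations. At the GI50, growth is halved. TGI marks complete inhibition of growth.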

Among the test systems are A549 NSCLC; M14 melanoma; HL-60(TB) leukemia; NCI-H522 lung; SK-MEL-28 melanoma; HCT-15 colon; OVCAR-3 ovarian; UACC-62 melanoma; SF-295 CNS; MOLT-4 leukemia.
Holding throughout (test): NCI anticancer screen, dose series, 48 h

In the case of `O=C(COc1ccc(/C=C2\Oc3ccccc3C2=O)cc1)Nc1nc2c(s1)CCCC2`, the GI50 is 3.09 µM with A549 NSCLC; 16.1 µM with M14 melanoma; 0.424 µM in the assay with HL-60(TB) leukemia; 0.165 µM in the assay on NCI-H522 lung; 27.8 µM with SK-MEL-28 melanoma; 25.1 µM in the assay on HCT-15 colon. Further, the GI50 with OVCAR-3 ovarian was 1.83 µM; with UACC-62 melanoma, 23.2 µM; with SF-295 CNS it was 10.1 µM. The TGI is 33 µM with A549 NSCLC; greater than 100 µM in the assay on M14 melanoma; 1.31 µM with HL-60(TB) leukemia; 0.406 µM in the assay on NCI-H522 lung; greater than 68.7 µM in the assay on SK-MEL-28 melanoma; greater than 100 µM in the assay with HCT-15 colon. The results for the TGI in the assay with OVCAR-3 ovarian, with UACC-62 melanoma and in the assay on SF-295 CNS were 25.5 µM, greater than 100 µM and 43.9 µM, respectively.
Regarding `O=C(Nc1ccc(Cl)c(Cl)c1)O/N=C\c1c(Cl)ccc([N+](=O)[O-])c1Cl`, the GI50 was 2.96 µM with A549 NSCLC; 2.23 µM in the assay on MOLT-4 leukemia; 2.44 µM in the assay on M14 melanoma; 1.18 µM in the assay with HL-60(TB) leukemia; 1.34 µM in the assay with NCI-H522 lung; 2.1 µM in the assay with SK-MEL-28 melanoma. For the same compound, the GI50 in the assay with HCT-15 colon was 1.2 µM; with OVCAR-3 ovarian it was 1.31 µM; in the assay on SF-295 CNS, 2.8 µM. The TGI in the assay with A549 NSCLC was determined as 10.3 µM; in the assay on MOLT-4 leukemia, 5.46 µM; in the assay on M14 melanoma it was 8.18 µM; in the assay on HL-60(TB) leukemia, 3.13 µM; in the assay with NCI-H522 lung, 2.88 µM; in the assay with SK-MEL-28 melanoma, 4.22 µM. Also, the TGI in the assay with HCT-15 colon is 3.48 µM; with OVCAR-3 ovarian, 2.76 µM; with SF-295 CNS, 8.14 µM.
For the compound `O=C(Nc1cccc(NC(=O)Nc2cc(C(F)(F)F)ccc2Cl)c1)Nc1cc(C(F)(F)F)ccc1Cl`, the GI50 in the assay on A549 NSCLC is 1.95 µM; in the assay with MOLT-4 leukemia it was 5.19 µM; in the assay with M14 melanoma, 3.53 µM; in the assay with NCI-H522 lung, 1.21 µM; with SK-MEL-28 melanoma, 2.84 µM; in the assay on HCT-15 colon, 0.566 µM. The GI50 in the assay on UACC-62 melanoma was 2.35 µM; in the assay on SF-295 CNS it was 1.59 µM. Also, the TGI with A549 NSCLC is 15.8 µM; in the assay on MOLT-4 leukemia, greater than 100 µM; in the assay on M14 melanoma, 60 µM; in the assay with NCI-H522 lung, 7.78 µM; in the assay with SK-MEL-28 melanoma it was 15.4 µM; in the assay on HCT-15 colon, greater than 100 µM. Also, the results for the TGI with UACC-62 melanoma and with SF-295 CNS were 16.8 µM and 12.2 µM, respectively.
As for `COc1ccc(/C=N/N=C(\N)NO)c(OC)c1`, the TGI with A549 NSCLC, in the assay on MOLT-4 leukemia, with SK-MEL-28 melanoma, in the assay with HCT-15 colon, in the assay on OVCAR-3 ovarian and in the assay on UACC-62 melanoma was greater than 100 µM each time. Besides, in the assay with SF-295 CNS, the TGI is 70.7 µM.
As to `COc1ccc2c(c1)C(=O)c1c-2c(N(C)C)nc2ccccc12`, the GI50 in the assay on A549 NSCLC, in the assay with MOLT-4 leukemia, in the assay with M14 melanoma, in the assay on HL-60(TB) leukemia, with NCI-H522 lung and in the assay on SK-MEL-28 melanoma was greater than 100 µM each time. For the same compound, the GI50 in the assay with HCT-15 colon and with UACC-62 melanoma was greater than 100 µM each time. For the same compound, the TGI in the assay on A549 NSCLC, with MOLT-4 leukemia, with M14 melanoma, with HL-60(TB) leukemia, in the assay with NCI-H522 lung and in the assay on SK-MEL-28 melanoma was greater than 100 µM throughout. The TGI in the assay with HCT-15 colon and with UACC-62 melanoma was greater than 100 µM each time.
In the case of `COC(=O)c1cc(Cl)ccc1NC(=O)c1ccc([N+](=O)[O-])cc1`, the TGI is 58.2 µM in the assay with A549 NSCLC; greater than 100 µM in the assay on MOLT-4 leukemia; 90.7 µM with M14 melanoma; greater than 100 µM with HL-60(TB) leukemia; greater than 100 µM in the assay on SK-MEL-28 melanoma; greater than 100 µM in the assay on HCT-15 colon. In addition, the TGI in the assay with OVCAR-3 ovarian stood at 31.4 µM; with UACC-62 melanoma, 66.5 µM; with SF-295 CNS, 6.1 µM.
Turning to `COC(=O)C1=C(c2cc(OC)c(OC)c(OC)c2)OC(c2ccc(OC)c(OC)c2)C1` (stereo not drawn), the TGI was greater than 100 µM in the assay on A549 NSCLC; 51.2 µM in the assay on MOLT-4 leukemia; greater than 100 µM in the assay with M14 melanoma; greater than 100 µM in the assay with HL-60(TB) leukemia; greater than 100 µM in the assay with SK-MEL-28 melanoma; greater than 100 µM in the assay with HCT-15 colon. Besides, the TGI with OVCAR-3 ovarian, in the assay with UACC-62 melanoma and in the assay on SF-295 CNS was greater than 100 µM in each case.
For the compound `Nc1[nH]nc2nc(-c3cccs3)cc(C(F)(F)F)c12`, the GI50 with A549 NSCLC was 24.3 µM; with M14 melanoma, greater than 25 µM; with HL-60(TB) leukemia, greater than 25 µM; in the assay on NCI-H522 lung, greater than 13.9 µM; with SK-MEL-28 melanoma it was greater than 25 µM; with HCT-15 colon, greater than 25 µM. Moreover, the GI50 in the assay with OVCAR-3 ovarian, in the assay on UACC-62 melanoma and in the assay on SF-295 CNS was greater than 25 µM each time. The TGI in the assay on A549 NSCLC, in the assay with M14 melanoma, in the assay on HL-60(TB) leukemia, in the assay on NCI-H522 lung, in the assay with SK-MEL-28 melanoma and in the assay on HCT-15 colon was greater than 25 µM in each case. Moreover, the TGI in the assay on OVCAR-3 ovarian, in the assay on UACC-62 melanoma and in the assay with SF-295 CNS was greater than 25 µM in each case.
In the case of `COc1ccc(C2=NN(c3ccccc3)C[N+](c3ccc(OC)cc3)=N2)cc1`, the TGI with A549 NSCLC was greater than 100 µM; in the assay with MOLT-4 leukemia, 90.7 µM; in the assay with HL-60(TB) leukemia, greater than 100 µM; in the assay on NCI-H522 lung it was 30 µM; in the assay with SK-MEL-28 melanoma, greater than 100 µM; in the assay on HCT-15 colon, greater than 100 µM. Besides, the values for the TGI in the assay with OVCAR-3 ovarian and in the assay with SF-295 CNS were 46 µM and greater than 100 µM, respectively.
In the case of `O=C1c2ccccc2-c2c1c1ccccc1c(=O)n2CCN1CCOCC1`, the GI50 in the assay with A549 NSCLC is 64.8 µM; with MOLT-4 leukemia, 14.7 µM; with NCI-H522 lung, 39.5 µM; in the assay on SK-MEL-28 melanoma it was greater than 100 µM; in the assay with HCT-15 colon, 78.5 µM; with OVCAR-3 ovarian, 82.2 µM. The GI50 is 29.4 µM in the assay on UACC-62 melanoma and 48.1 µM in the assay with SF-295 CNS. In addition, the TGI is greater than 100 µM in the assay with A549 NSCLC; 38.6 µM with MOLT-4 leukemia; greater than 100 µM in the assay with NCI-H522 lung; greater than 100 µM in the assay on SK-MEL-28 melanoma; greater than 100 µM with HCT-15 colon; greater than 100 µM with OVCAR-3 ovarian. In addition, the TGI in the assay on UACC-62 melanoma and in the assay on SF-295 CNS was greater than 100 µM each time.
For the compound `O=S1(=O)OCCOS(=O)(=O)C1Cc1ccccc1`, the TGI was greater than 100 µM with A549 NSCLC; greater than 100 µM in the assay with MOLT-4 leukemia; 54.5 µM with HL-60(TB) leukemia; greater than 100 µM with NCI-H522 lung; greater than 100 µM in the assay with SK-MEL-28 melanoma; 44.9 µM in the assay with OVCAR-3 ovarian. In addition, the TGI in the assay with UACC-62 melanoma and in the assay on SF-295 CNS was greater than 100 µM throughout.
